These are literature values, as cited in patent US10052339B2, “Methods and compositions for treating symptoms of diseases related to imbalance of essential fatty acids” (BODYBIO INC, priority 2014, dated 2018).

The target in data set [1] is CB2 receptor (Homo sapiens, UniProt P34972).
For data set [2], the system named is mice.
The target of data set [3] is CB1 cannabinoid receptor (Homo sapiens, UniProt P21554).
CB1 cannabinoid receptor, sequence (P21554 whole entry): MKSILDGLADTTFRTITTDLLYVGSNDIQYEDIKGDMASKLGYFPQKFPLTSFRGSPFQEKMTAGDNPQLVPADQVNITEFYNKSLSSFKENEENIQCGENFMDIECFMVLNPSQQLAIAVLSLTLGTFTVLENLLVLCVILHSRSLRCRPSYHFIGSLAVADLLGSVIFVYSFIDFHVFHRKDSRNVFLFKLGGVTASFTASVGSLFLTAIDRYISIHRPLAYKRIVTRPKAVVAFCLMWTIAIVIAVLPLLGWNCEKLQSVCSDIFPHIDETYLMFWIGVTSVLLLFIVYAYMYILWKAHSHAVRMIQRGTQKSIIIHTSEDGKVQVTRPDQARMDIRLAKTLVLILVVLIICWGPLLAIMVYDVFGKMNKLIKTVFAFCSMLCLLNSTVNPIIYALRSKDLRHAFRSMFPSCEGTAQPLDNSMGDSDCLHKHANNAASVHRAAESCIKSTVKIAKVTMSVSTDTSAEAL

CB2 receptor, sequence (P34972 whole entry): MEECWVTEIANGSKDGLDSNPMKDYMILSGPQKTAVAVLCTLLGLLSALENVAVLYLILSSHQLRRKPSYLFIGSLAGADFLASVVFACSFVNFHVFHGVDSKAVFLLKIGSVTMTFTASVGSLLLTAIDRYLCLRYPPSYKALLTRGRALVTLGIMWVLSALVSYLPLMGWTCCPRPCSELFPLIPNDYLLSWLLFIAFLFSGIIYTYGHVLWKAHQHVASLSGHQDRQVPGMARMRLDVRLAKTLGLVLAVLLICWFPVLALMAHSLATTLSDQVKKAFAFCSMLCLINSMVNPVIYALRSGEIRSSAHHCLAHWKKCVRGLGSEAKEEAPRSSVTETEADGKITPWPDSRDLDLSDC

As a reminder, the Ki is a measure of affinity in units of concentration, obtained from inhibition or displacement. On to `CCCCC/C=C\C/C=C\C/C=C\C/C=C\CCCCOC(CO)CO` [Noladin ether, 2-arachidonyl glyceryl ether], for which the “binding to the CB2 receptor” value in data set [1] is listed as “only weakly”. The “effects caused in mice” value in data set [2] is “sedation, hypothermia, intestinal immobility, and mild antinociception”. Moreover, the Ki in data set [3] was 21.2 nM.
